Among the data in US20230265151A1, “GIP/GLP1 CO-AGONIST COMPOUNDS” (priority 2020, published 2023) are EC50 and Emax values, retold here.

What all share (format): cell-based
One assay has as its target T1, hGCGR (Homo sapiens, UniProt P47871).
T1 construct: expressed in transfected cells
The assay is described as follows: Functional cAMP formation (HTRF) in HEK-293 clonal cells expressing hGCGR, 0.1% bovine casein, without or with 1.0% human serum albumin. To be noted: hGCGR EC50, nM (SEM, n), geometric mean. Summed up: (§1)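 Cells were stimulated with peptide for 30 min at 37° C, then intracellular cAMP was measured by competitive HTRF (665/620 nm ratio) and converted to nM using a cAMP standard curve. Relative EC50 and Emax came from four-parameter logistic fits of percent maximal response against peptide concentration.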
(cAMP levels reflect the balance of adenylyl cyclase and phosphodiesterase activity.)

In another assay the target is hGLP-1R (Homo sapiens, UniProt P43220). The assay is described as follows: Functional cAMP formation (HTRF) in HEK-293 clonal cells expressing hGLP-1R, 0.1% bovine casein, without or with 1.0% human serum albumin. Set-up: expressed in transfected cells. To be noted: for EC50: hGLP-1R EC50, nM (SEM, n), geometric mean. Summed up: as §1
Chain of hGLP-1R (P43220 24-463): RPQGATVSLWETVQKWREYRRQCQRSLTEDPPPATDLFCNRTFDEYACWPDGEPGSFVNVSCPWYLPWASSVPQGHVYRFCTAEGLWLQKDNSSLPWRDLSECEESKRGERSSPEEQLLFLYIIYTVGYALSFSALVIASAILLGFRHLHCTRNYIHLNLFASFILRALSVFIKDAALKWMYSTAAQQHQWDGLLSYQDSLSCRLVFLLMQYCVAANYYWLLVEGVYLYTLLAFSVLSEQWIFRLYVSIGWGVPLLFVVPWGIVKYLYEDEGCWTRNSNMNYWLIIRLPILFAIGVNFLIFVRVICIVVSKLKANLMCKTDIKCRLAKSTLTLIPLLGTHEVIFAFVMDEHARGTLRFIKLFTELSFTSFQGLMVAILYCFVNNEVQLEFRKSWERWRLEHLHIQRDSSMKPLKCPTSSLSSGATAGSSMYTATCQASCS
The target of another assay is T2, hGIPR (Homo sapiens, UniProt P48546).
T2 construct: expressed in transfected cells
T2 sequence (P48546 22-466): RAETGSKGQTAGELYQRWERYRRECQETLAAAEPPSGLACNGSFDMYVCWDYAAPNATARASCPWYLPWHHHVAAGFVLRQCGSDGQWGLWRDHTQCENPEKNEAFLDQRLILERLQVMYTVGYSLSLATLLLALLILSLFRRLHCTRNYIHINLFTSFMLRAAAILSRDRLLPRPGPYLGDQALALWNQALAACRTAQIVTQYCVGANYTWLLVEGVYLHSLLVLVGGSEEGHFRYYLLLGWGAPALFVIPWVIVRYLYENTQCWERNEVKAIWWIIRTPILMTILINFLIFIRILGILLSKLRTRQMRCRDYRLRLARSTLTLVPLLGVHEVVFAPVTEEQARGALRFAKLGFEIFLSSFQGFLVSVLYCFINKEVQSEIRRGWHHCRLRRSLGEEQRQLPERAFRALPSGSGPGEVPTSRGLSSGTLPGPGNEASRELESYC
The assay is described as follows: Functional cAMP formation (HTRF) in HEK-293 clonal cells expressing hGIPR, 0.1% bovine casein, without or with 1.0% human serum albumin. To be noted: for EC50: hGIPR EC50, nM (SEM, n), geometric mean. An outline of the steps: as §1

Where [1] appears, read: 0.1% bovine casein and 1.0% human serum albumin, 37° C.
Where [2] appears, read: cAMP, incubated at 37° C., 0.1% bovine casein (no human serum albumin).
[3] abbreviates: HEK293, read-out: hGIPR Emax, % ± SEM, 0.1% bovine casein and 1.0% human serum albumin, 37° C., percent of maximal response to GIP(1-42)NH2.
The mark [4] stands for this setting: HEK293, read-out: hGIPR Emax, % ± SEM, percent of maximal response to GIP(1-42)NH2, 37° C., 0.1% bovine casein, arithmetic mean.

Each structure is given as a SMILES string. Read-outs that look alike come from different tables or passages of the source. *1 amine or outer side, *2 acyl side, *3 side chain or, on linkers, in order; H or OH if unused. Where a SMILES comes first, the peptide text is derived from it. Side-chain parts run from the residue outwards. [ ]: non-standard residue; d: D form. The star is where a group is joined. Decanoyl(10-(4-HOOC-PhO)) = O=C(O)c1ccc(OCCCCCCCCCC(=O)*)cc1; αMePhe(2-F) = C[C@](N)(Cc1ccccc1F)C(=O)O; γGlu = O=C(O)[C@H](CCC(=O)[*:2])N[*:1]; αMeY = C[C@](N)(Cc1ccc(O)cc1)C(=O)O; αMeL = CC(C)C[C@](C)(N)C(=O)O; Orn = NCCC[C@H](N)C(=O)O; AEEA = NCCOCCOCC(=O)O; Aib = CC(C)(N)C(=O)O Bounds are passed on as bounds.

T1 sequence (P47871 26-477): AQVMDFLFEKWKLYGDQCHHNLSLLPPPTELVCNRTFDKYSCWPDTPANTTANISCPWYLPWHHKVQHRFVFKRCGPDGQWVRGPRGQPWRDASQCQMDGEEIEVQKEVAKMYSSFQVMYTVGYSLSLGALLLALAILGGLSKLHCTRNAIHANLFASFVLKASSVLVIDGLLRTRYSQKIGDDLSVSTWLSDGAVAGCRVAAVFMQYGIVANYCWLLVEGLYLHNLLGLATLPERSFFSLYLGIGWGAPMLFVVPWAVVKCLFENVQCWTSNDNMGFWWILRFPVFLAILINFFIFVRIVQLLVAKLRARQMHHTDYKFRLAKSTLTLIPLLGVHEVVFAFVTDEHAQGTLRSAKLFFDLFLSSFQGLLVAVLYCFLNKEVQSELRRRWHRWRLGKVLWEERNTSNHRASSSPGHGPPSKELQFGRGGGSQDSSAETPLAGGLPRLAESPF

Usually EC50 stands for the concentration needed to bring the measured effect to its halfway point. A higher EC50 goes with lower potency in that assay. What is called Emax is the maximal effect, on the per cent scale that the assay sets. Take `CC[C@H](C)[C@H](NC(=O)[C@H](CCCN)NC(=O)[C@H](CC(=O)O)NC(=O)[C@H](CC(C)C)NC(=O)[C@](C)(CC(C)C)NC(=O)[C@@H](NC(=O)C(C)(C)NC(=O)[C@H](Cc1ccc(O)cc1)NC(=O)[C@H](CC(=O)O)NC(=O)[C@H](CO)NC(=O)[C@@H](NC(=O)[C@](C)(Cc1ccccc1F)NC(=O)[C@@H](NC(=O)CNC(=O)[C@H](CCC(=O)O)NC(=O)C(C)(C)NC(=O)[C@@H](N)Cc1ccc(O)cc1)[C@@H](C)O)[C@@H](C)O)[C@@H](C)CC)C(=O)N[C@@H](C)C(=O)N[C@@H](CCC(N)=O)C(=O)NC(C)(C)C(=O)N[C@@H](CCCCNC(=O)COCCOCCNC(=O)COCCOCCNC(=O)CC[C@H](NC(=O)CCCCCCCCCOc1ccc(C(=O)O)cc1)C(=O)O)C(=O)N[C@@H](Cc1ccccc1)C(=O)N[C@H](C(=O)N[C@H](CCC(=O)O)C(=O)N[C@@](C)(Cc1ccc(O)cc1)C(=O)N[C@@H](CC(C)C)C(=O)N[C@H](C(=O)N[C@@H](CCC(=O)O)C(=O)NCC(=O)NCC(=O)N1CCC[C@H]1C(=O)N[C@@H](CO)C(=O)N[C@@H](CO)C(=O)NCC(=O)N[C@@H](C)C(=O)N1CCC[C@H]1C(=O)N1CCC[C@H]1C(=O)N1CCC[C@H]1C(=O)N[C@@H](CO)C(=O)N[C@@H](CCCCNC(=O)COCCOCCNC(=O)COCCOCCNC(=O)CC[C@H](NC(=O)CCCCCCCCCOc1ccc(C(=O)O)cc1)C(=O)O)C(N)=O)[C@@H](C)CC)[C@@H](C)CC` [Example 241] (H-Y[Aib]EGT[αMePhe(2-F)]TSDY[Aib]I[αMeL]LD[Orn]IAQ[Aib]K([AEEA-AEEA-γGlu-Decanoyl(10-(4-HOOC-PhO))])FI[dE][αMeY]LIEGGPSSGAPPPSK([AEEA-AEEA-γGlu-Decanoyl(10-(4-HOOC-PhO))])-NH2; N-terminus assumed): the EC50 at hGCGR (setting [1]) is > 9950 nM; at hGCGR (setting [2]), > 9950 nM; at hGLP-1R (setting [2]), 0.362 nM; at hGIPR (setting [2]), 0.0213 nM. For the same compound, the Emax was 105% at hGLP-1R (HEK293, read-out: hGLP-1R Emax, % ± SEM, 0.1% bovine casein and 1.0% human serum albumin, 37° C., percent of maximal response to GLP-1(7-36)NH2); 91% at hGLP-1R (HEK293, read-out: hGLP-1R Emax, % ± SEM, percent of maximal response to GLP-1(7-36)NH2, 37° C., 0.1% bovine casein, arithmetic mean); 84.9% on hGIPR (setting [3]); 105% on hGIPR (setting [4]).

For the compound `CC[C@H](C)[C@H](NC(=O)[C@H](CCCN)NC(=O)[C@H](CC(=O)O)NC(=O)[C@H](CC(C)C)NC(=O)[C@](C)(CC(C)C)NC(=O)[C@@H](NC(=O)[C@H](CO)NC(=O)[C@H](Cc1ccncc1)NC(=O)[C@H](CC(=O)O)NC(=O)[C@H](CO)NC(=O)[C@@H](NC(=O)[C@](C)(Cc1ccccc1F)NC(=O)[C@@H](NC(=O)CNC(=O)[C@H](CCC(=O)O)NC(=O)C(C)(C)NC(=O)[C@@H](N)Cc1ccc(O)cc1)[C@@H](C)O)[C@@H](C)O)[C@@H](C)CC)C(=O)N[C@@H](C)C(=O)N[C@@H](CCC(N)=O)C(=O)NC(C)(C)C(=O)N[C@@H](CCCCNC(=O)COCCOCCNC(=O)COCCOCCNC(=O)CC[C@H](NC(=O)CCCCCCCCCCCCC(=O)O)C(=O)O)C(=O)N[C@@H](Cc1ccccc1)C(=O)N[C@H](C(=O)N[C@@H](CCCCNC(=O)COCCOCCNC(=O)COCCOCCNC(=O)CC[C@H](NC(=O)CCCCCCCCCCCCC(=O)O)C(=O)O)C(=O)N[C@@](C)(Cc1ccc(O)cc1)C(=O)N[C@@H](CC(C)C)C(=O)N[C@H](C(=O)N[C@@H](CCC(=O)O)C(=O)NCC(=O)NCC(=O)N1CCC[C@H]1C(=O)N[C@@H](CO)C(=O)N[C@@H](CO)C(=O)NCC(=O)N[C@@H](C)C(=O)N1CCC[C@H]1C(=O)N1CCC[C@H]1C(=O)N1CCC[C@H]1C(=O)N[C@@H](CO)C(N)=O)[C@@H](C)CC)[C@@H](C)CC` [Example 69], the EC50 was > 9950 nM at hGCGR (setting [1]); > 9950 nM on hGCGR (setting [2]); 18.9 nM on hGLP-1R (setting [1]); 2.32 nM on hGIPR (setting [1]); 0.0265 nM at hGIPR (setting [2]). The Emax on hGIPR (setting [3]) worked out at 86.8%; on hGIPR (setting [4]), 99 ± 2.43%.
